Experimental data as given in patent USRE39088E1, “Amide compounds and use of the same” (Japan Tobacco, Inc., priority 1995, dated 2006).
Counter-ions that a name gives are not always drawn. Like-named read-outs stand apart in the source and are kept apart here.

Columns and labels:
[1] = system: ALT in blood; assay: Suppression of LPS/D-galactosamine-induced hepatitis; type: in vivo; details: tail vein, 10 minutes before LPS/D-galactosamine, ALT in blood at 6 hours, male C57BL/6 mice; for inhibition in vivo at 10 mg/kg / inhibition in vivo at 5 mg/kg: Mus musculus, iv
Protocol: Suppression of LPS/D-galactosamine-induced hepatitis
LPS (5 μg/kg)D-galactosamine (500 mg/kg) in physiological saline was intraperitoneally injected to male C57BL/6 mice to induce hepatitis. Six hours after the injection of LPS/D-galactosamine in physiological saline, blood was taken from the mice orbital venosus plexus. Plasma was separated from the blood, and ALT in blood was determined by a biochemical analyzer. The test sample was administered from the tail vein at 10 minutes before the injection of LPS/D-galactosamine in physiological saline, and the degree of suppression was investigated. The suppression by the test sample is shown in the ratio relative to the suppression in the control group.
Suppression (%)=100-(ALT amount of group treated with test sample/ALT amount of control group)×100

[2] = system: IL-8; assay: Suppression of production of inflammatory cytokines: IL-8 in LPS-stimulated human peripheral blood monocytes (ELISA); type: cell-based; details: supernatant 20 hours after LPS
Protocol: (§1) Suppression of production of inflammatory cytokines
(§2) Thirty ml of human peripheral blood added with heparin was placed on Ficol-Paque (15 ml), and centrifuged at 400 G for 40 minutes at room temperature. The obtained monocyte fraction layers were collected and washed three times with E-MEM medium. The cells were adjusted to a final concentration of 0.5×10^5 cells/800 μl with RPMI-1640 medium containing 5% bovine fetal serum (2-mercaptoethanol), and seeded in a 24 well plant by 800 μl. A test sample (100 μl) was added and 100 μl of lipopolysarcharide (LPS, 100 μg/ml) was added one hour later. The supernatant was taken at 20 hours after stimulation with LPS, and amounts of various cytokines were determined using an ELISA kit.

[3] = system: TNF α in the peritoneal fluid; assay: Suppression of LPS-induced peritonitis; type: in vivo, male Balb/c mice; details: test sample 50 mg/kg from the tail vein 60 minutes before LPS i.p.; TNF α in peritoneal fluid one hour after LPS, relative to control group; ** = p<0.01 from control
Protocol: Suppression of LPS-induced peritonitis
LPS (30 μg/ml, 1 ml) prepared with physiological saline containing 0.5% CMC (carboxymethylcellulose) was infra-peritoneally injected into male Balb/c mice to induce-peritonitis. One hour later, the mice were killed with carbon dioxide, and the amount of TNF α in the peritoneal fluid was determined using an ELISA kit.
The test sample (50 mg/kg) was administered from the tail vein at 60 minutes before LPS injection, and the degree of suppression was investigated. The suppression by the test sample is shown in the ratio relative to the suppression in the control group.
Suppression (%)=100-(TNR amount of group treated with test sample/TNF amount of control group)×100
The results are shown in Table 89 wherein ** means the presence of significant difference by p<0.01 from the control group.

[4] = system: IL-1; assay: Suppression of production of inflammatory cytokines: IL-1 in LPS-stimulated human peripheral blood monocytes (ELISA); type: cell-based; details: Monocyte, read-out: IC50 (μM) IL-1β
Protocol: as §1, §2

[5] = system: TNF-α; assay: Suppression of production of inflammatory cytokines: TNF-α in LPS-stimulated human peripheral blood monocytes (ELISA); type: cell-based; details: Monocyte, read-out: IC50 (μM) TNF
Protocol: as §1, §2

[6] = LPS-stimulated human peripheral blood monocytes, supernatant 20 hours after LPS, ELISA

Row | Structure (SMILES) | inhibition in vivo at 10 mg/kg [1] | IC50 ([2]; Homo sapiens, Monocyte, 20 h) | also measured
1 | CC(C)OC(=O)[C@H](Cc1ccccc1)NC(=O)c1cc(Cl)c(OCCCCN)c(Cl)c1O [Example 27] | 67% | < 0.01 µM | –
2 | CCOC(=O)[C@H](Cc1ccccc1)NC(=O)c1cc(Cl)c(OC(=O)CCN2CCNCC2)c(Cl)c1O [Example 155, N-[3,5-Dichloro-2-hydroxy-4-(3-piperazinylpropionyloxy)benzoyl]-L-phenylalanine ethyl ester dihydrochloride] | – | – | IC50 ([2]; Monocyte): 0.2 µM; Inhibition (%) [3]: 28** %
3 | CNCCCCOc1c(Cl)cc(C(=O)N[C@@H](Cc2ccccc2)C(=O)OC2CCCCC2)c(O)c1Cl [Example 46] | 57% | < 0.01 µM | –
4 | NCCCCOc1c(Cl)cc(C(=O)N[C@@H](Cc2ccccc2)C(=O)OC2CCCCC2)c(O)c1Cl [Example 45] | 30% | 0.004 µM | IC50 [4, 6]: 0.0008 µM; IC50 [5, 6]: 0.004 µM
5 | CCOC(=O)C(Cc1ccccc1)NC(=O)c1cc(Cl)c(OCCCCNC)c(Cl)c1OC(C)=O (stereo not drawn) [Example 117] | 54% | < 0.01 µM | –
6 | COC(=O)[C@H](Cc1ccccc1)NC(=O)c1cc(Cl)c(OCCOCCN(C)C)c(Cl)c1O [Example 37] | 80% | 0.3 µM | –
7 | CNCCCCOc1c(Cl)cc(C(=O)N[C@@H](Cc2ccccc2)C(=O)OC)c(OC(=O)c2ccccc2)c1Cl [Example 105, N-[2-Benzoyloxy-3,5-dichloro-4-(4-methylaminobutoxy)benzoyl]-L-phenylalanine methyl ester hydrochloride] | 40% | 0.005 µM | IC50 [4, 6]: 0.001 µM; IC50 [5, 6]: 0.004 µM
8 | COC(=O)[C@H](Cc1ccccc1)NC(=O)c1ccc(OCCCCCN)cc1O [Example 5] | – | 6 µM | IC50 [4, 6]: 75 µM; IC50 [5, 6]: 6 µM
9 | CNCCCCOc1c(Cl)cc(C(=O)N[C@@H](Cc2ccccc2)C(=O)OC)c(O)c1C [Example 10] | 77% | 0.6 µM | –
10 | CCOC(=O)[C@H](Cc1ccccc1)NC(=O)c1ccc(-c2noc(CCCCNC)n2)cc1O.Cl [Example 148, (2S)-3-Phenyl-2-[4-[5-(4-methylaminobutyl)-1,2,4-oxadizol-3-yl]-2-hydroxybenzoylamino]propionic acid ethyl ester hydrochloride] | – | – | IC50 [2]: 4 µM; Inhibition (%) [3]: 19%
11 | COC(=O)[C@H](Cc1ccccc1)NC(=O)c1cc(Cl)c(OCCCCNC(=N)N)c(Cl)c1O [Example 32] | 78% | 0.5 µM | –
12 | COC(=O)[C@H](Cc1ccccc1)NC(=O)c1ccc(OCCCCN)cc1O.Cl [Example 4] | 42% | 2 µM | IC50 [4, 6]: 3 µM; IC50 [5, 6]: 2 µM; Inhibition (%) [3]: 38** %
13 | CCOC(=O)[C@H](Cc1ccccc1)NC(=O)c1cc(Cl)c(OCCN2CCN(C)CC2)c(Cl)c1O [Example 2, N-{3,5-Dichloro-2-hydroxy-4-[2-(4-methylpiperazin-1-yl)ethoxy]-benzoyl}-L-phenylalanine ethyl ester dihydrochloride] | 65% | 0.01 µM | –
14 | CNCCCCOc1c(Cl)cc(C(=O)N[C@@H](Cc2ccccc2)C(=O)O)c(O)c1Cl [Example 126, N-[3,5-Dichloro-2-hydroxy-4-(4-methylaminobutoxy)benzoyl]-L-phenylalanine hydrochloride] | 27% | 0.8 µM | –
15 | CCSC(=O)C(Cc1ccccc1)NC(=O)c1cc(Cl)c(OCCCCN)c(Cl)c1O.Cl (stereo not drawn) [Example 52] | – | < 0.01 µM | Inhibition (%) [3]: 31** %
16 | CNCCCCOc1cc(O)c(C(=O)N[C@@H](Cc2ccccc2)C(=O)OC)cc1Cl.Cl [Example 9] | – | < 0.3 µM | Inhibition (%) [3]: 21%
17 | Cl.NCCCCOc1c(Cl)cc(C(=O)N[C@@H](Cc2ccccc2)C(=O)Nc2ccccc2)c(O)c1Cl [Example 138, N-[3,5-Dichloro-2-hydroxy-4-(4-aminobutoxy)benzoyl]-L-phenyl-alanylaminobenzene hydrochloride] | – | – | Inhibition (%) ([1]; dose 5 mg/kg): 22%; IC50 [2]: 1 µM
18 | CNCCCCOc1c(Cl)cc(C(=O)N[C@@H](Cc2ccccc2)C(=O)NCC(=O)O)c(O)c1Cl [Example 50] | 15% | 28 µM | –
19 | NCCCCOc1c(Cl)cc(C(=O)N[C@@H](Cc2ccccc2)C(=O)O)c(O)c1Cl [Example 127] | – | 0.2 µM | inhibition in vivo at 5 mg/kg ([1]; dose 5 mg/kg): 82%
20 | COC(=O)[C@H](Cc1ccccc1)NC(=O)c1ccc(OCCCN)cc1O [Example 3] | – | > 30 µM | IC50 [4, 6]: > 30 µM; IC50 [5, 6]: 14 µM
21 | CCCCCCOC(=O)[C@H](Cc1ccccc1)NC(=O)c1cc(Cl)c(OCCCCNC)c(Cl)c1O [Example 31] | – | < 0.01 µM | inhibition in vivo at 5 mg/kg ([1]; dose 5 mg/kg): 87%
22 | COC(=O)[C@H](Cc1ccccc1)NC(=O)c1ccc(OCCCCCCN)cc1O [Example 6] | – | 14 µM | IC50 [4, 6]: 14 µM; IC50 [5, 6]: 6 µM
23 | CNCCCCOc1c(Cl)cc(C(=O)N[C@@H](Cc2ccccc2)C(=O)OC)c(O)c1Cl.Cl [Example 1, N-[3,5-Dichloro-2-hydroxy-4-(4-methylaminobutoxy)benzoyl]-L-phenylalanine methyl ester hydrochloride] | 78% | – | IC50 ([4]; Homo sapiens, 20 h): 0.002 µM; IC50 ([5]; Homo sapiens, 20 h): 0.008 µM; inhibition in vivo at 5 mg/kg ([1]; dose 5 mg/kg): 88%; IC50 ([2]; Monocyte): 0.009 µM; Inhibition (%) [3]: 64** %
24 | CCOC(=O)C(Cc1ccccc1)NC(=O)c1cc(Cl)c(OCCCCN)c(Cl)c1O.Cl (stereo not drawn) [Example 19] | – | < 0.01 µM | Inhibition (%) [3]: 32** %
25 | COC(=O)[C@H](Cc1ccccc1)NC(=O)c1cc(Cl)c(OCCN2CCNC(C)C2)c(Cl)c1O (stereo partly drawn) [Example 60] | 42% | 0.03 µM | –
26 | CCOC(=O)C(Cc1ccccc1)NC(=O)c1cc(Cl)c(OCCCCNC)c(Cl)c1O (stereo not drawn) [Example 22] | 51% | – | IC50 [2]: < 0.01 µM
